Active and inactive are the calls of the source. The calls are words filed in the database; no cut-off is given here.
Assays:
[1] = target: T1, Protein cereblon/Cyclic GMP-AMP synthase (Homo sapiens, UniProt Q96SW2+Q8N884); experiment: PROTAC activity at CRBN/cGAS in human THP-1 cells assessed as induction of cGAS degradation at 10 uM by Western blot analysis; format: cell-based; conditions: time 1-24 hrs
THP-1 [2] = experiment: Downregulation of IFNB mRNA expression in human THP-1 cells preincubated with compound for 40 hrs followed by HT-DNA addition and measured after 8 hrs by qRT-PCR analysis; format: functional, cell-based; conditions: dose 1.25-10 µM, time 48.0 hrs
[3] = Drug distribution in male C57BL/6 mouse colon at 20 mg/kg, ip measured after 2 to 24 hrs by LC-MS/MS analysis; format: ADME, organism-based; conditions: in vivo, time 2-24 hrs
[4] = target: T2, Protein cereblon/Cyclic GMP-AMP synthase (Mus musculus) (UniProt Q8C6L5+Q8C7D2); experiment: (§1) In vivo inhibition of cGAS signaling pathway in DSS-induced ulcerative colitis C57BL/6 mouse model assessed as reduction in IRF3 phosphorylation level in colon preadministered with DSS for 7 days followed by replacement with ultrapure water for 3 days with subsequent intraperitoneal compound administration starting from day 4 to 10 and measured on day 11 by Western blot analysis; format: functional, organism-based; conditions: dose 20-50 mg/kg/day, route ip, time 8.0 day
T2 sequence (Q8C6L5 whole entry, looked up): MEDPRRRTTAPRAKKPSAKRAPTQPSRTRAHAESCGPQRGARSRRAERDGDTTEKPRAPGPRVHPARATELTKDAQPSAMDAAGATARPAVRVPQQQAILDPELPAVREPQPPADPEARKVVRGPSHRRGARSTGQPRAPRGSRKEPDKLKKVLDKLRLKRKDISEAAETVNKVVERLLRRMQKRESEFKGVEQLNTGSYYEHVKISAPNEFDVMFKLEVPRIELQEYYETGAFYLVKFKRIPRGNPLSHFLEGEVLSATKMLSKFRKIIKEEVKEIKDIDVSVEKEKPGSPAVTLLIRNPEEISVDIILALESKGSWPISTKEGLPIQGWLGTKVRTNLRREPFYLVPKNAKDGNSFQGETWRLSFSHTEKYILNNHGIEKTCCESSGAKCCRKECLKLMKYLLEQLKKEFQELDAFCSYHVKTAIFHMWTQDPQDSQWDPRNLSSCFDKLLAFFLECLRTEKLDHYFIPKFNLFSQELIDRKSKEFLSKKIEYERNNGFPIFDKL
T2 sequence (Q8C7D2 whole entry, looked up): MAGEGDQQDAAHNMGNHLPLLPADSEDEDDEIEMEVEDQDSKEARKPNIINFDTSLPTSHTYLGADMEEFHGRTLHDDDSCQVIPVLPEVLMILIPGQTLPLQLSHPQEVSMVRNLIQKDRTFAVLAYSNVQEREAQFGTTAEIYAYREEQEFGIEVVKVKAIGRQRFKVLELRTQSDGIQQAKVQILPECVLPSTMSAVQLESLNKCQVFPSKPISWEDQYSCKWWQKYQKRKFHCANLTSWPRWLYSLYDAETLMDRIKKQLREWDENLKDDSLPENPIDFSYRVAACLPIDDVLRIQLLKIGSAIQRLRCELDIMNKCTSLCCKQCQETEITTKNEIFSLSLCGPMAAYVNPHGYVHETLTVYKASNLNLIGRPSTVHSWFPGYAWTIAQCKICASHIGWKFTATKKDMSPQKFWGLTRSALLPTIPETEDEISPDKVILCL

Mus musculus [5] = experiment: (§2) Anti-inflammatory activity in DSS-induced ulcerative colitis C57BL/6 mouse model assessed as decrease in disease activity index at 20 to 50 mg/kg/day, ip preadministered with DSS for 7 days followed by replacement with ultrapure water for 3 days with subsequent compound administration starting from day 4 to 10 and measured on day 11; format: functional, organism-based; conditions: dose 20-50 mg/kg/day, time 8.0 day
THP-1 [6] = experiment: Downregulation of IFNB mRNA expression level in HT-DNA-induced human THP-1 cells at 20 uM preincubated with compound for 12 hrs followed by HT-DNA addition and measured after 8 hrs by RT-qPCR analysis; format: functional, cell-based; conditions: time 20.0 hrs
Mus musculus [7] = experiment: as §2, with “body weight loss” for “disease activity index”; format: functional, organism-based; conditions: dose 20-50 mg/kg/day, time 8.0 day
THP-1 [8] = experiment: Inhibition of ds-DNA induced cGAS-STING signaling pathway in human THP-1 cells assessed as reduction in TBK1 phosphorylation preincubated with compound for 40 hrs followed by HT-DNA addition and measured after 8 hrs by Western blot analysis; format: cell-based; conditions: dose 0.7-20 µM, time 48.0 hrs
Mus musculus [9] = experiment: as §2, with “reduction” for “decrease”, “NET generation by measuring reduction in citH3 level in colon” for “disease activity index”, “11 by Western blot analysis” for “11”; format: functional, organism-based; conditions: dose 20-50 mg/kg/day, time 8.0 day
RAW-Lucia ISG [10] = experiment: (§3) Potency index, ratio of 1-(6,7-dichloro-9-(1-methyl-1H-pyrazol-3-yl)-1,3,4,5-tetrahydro-2H-pyrido[4,3-b]indol-2-yl)-2-hydroxyethan-1-one IC50 to test compound IC50 for inhibition of dsDNA-induced cGAS signaling pathway in mouse RAW-Lucia ISG cells preincubated with compound for 24 hrs followed by HT-DNA addition and measured after 24 hrs by QUANTI-Luc luciferase reagent based assay; format: cell-based; conditions: time 48.0 hrs
[11] = target: T1, Protein cereblon/Cyclic GMP-AMP synthase; experiment: PROTAC activity at CRBN/cGAS in human THP-1 cells assessed as induction of cGAS degradation by measuring maximal efficacy at 20 uM preincubated with compound for 40 hrs followed by HT-DNA stimulation and measured after 8 hrs by Western blot analysis relative to control; format: cell-based; conditions: time 48.0 hrs
Mus musculus [12] = experiment: as §2, with “normal morphological appearance of spleen” for “decrease in disease activity index”, “11 by H and E staining based analysis” for “11”; format: functional, organism-based; conditions: dose 20-50 mg/kg/day, time 8.0 day
THP-1 [13] = experiment: Downregulation of CXCL10 mRNA expression in human THP-1 cells preincubated with compound for 40 hrs followed by HT-DNA addition and measured after 8 hrs by qRT-PCR analysis; format: functional, cell-based; conditions: dose 1.25-10 µM, time 48.0 hrs
[14] = target: T1, Protein cereblon/Cyclic GMP-AMP synthase; experiment: PROTAC activity at CRBN/cGAS in human THP-1 cells assessed as induction of cGAS degradation at 10 uM preincubated with lenalidomide for 2 hrs followed by compound addition and measured after 48 hrs by Western blot analysis; format: cell-based
THP-1 [15] = experiment: Downregulation of IFNB mRNA expression level in cGAMP-induced human THP-1 cells at 20 uM preincubated with compound for 12 hrs followed by cGAMP addition and measured after 8 hrs by RT-qPCR analysis; format: functional, cell-based; conditions: time 20.0 hrs
Mus musculus [16] = experiment: as §2, with “[…]” for “decrease”, “[…]” for “disease activity index”; format: functional, organism-based; conditions: dose 20-50 mg/kg/day, time 8.0 day
THP1-Lucia ISG = experiment: as §3, with “human THP1-Lucia” for “mouse RAW-Lucia”; format: cell-based; conditions: time 48.0 hrs
[17] = Cytotoxicity against human THP1-Lucia ISG cells assessed as reduction in cell viability upto 60 uM incubated for 48 hrs by CCK8 assay; format: toxicity, cell-based
[18] = target: T2, Protein cereblon/Cyclic GMP-AMP synthase (Mus musculus); experiment: as §1, with “cGAS protein” for “IRF3 phosphorylation”; format: functional, organism-based; conditions: dose 20-50 mg/kg/day, route ip, time 8.0 day
[19] = target: Cyclic GMP-AMP synthase (Homo sapiens) (UniProt Q8N884); experiment: Inhibition of cGAMP-induced cGAS signaling pathway in human THP1-Lucia ISG cells at 0.2 to 20 uM preincubated with compound for 2 hrs followed by cGAMP addition and measured after 24 hrs by QUANTI-Luc luciferase reagent based assay; format: cell-based; conditions: dose 0.2-20 µM, time 26.0 hrs
Cyclic GMP-AMP synthase (Homo sapiens), sequence (Q8N884 whole entry): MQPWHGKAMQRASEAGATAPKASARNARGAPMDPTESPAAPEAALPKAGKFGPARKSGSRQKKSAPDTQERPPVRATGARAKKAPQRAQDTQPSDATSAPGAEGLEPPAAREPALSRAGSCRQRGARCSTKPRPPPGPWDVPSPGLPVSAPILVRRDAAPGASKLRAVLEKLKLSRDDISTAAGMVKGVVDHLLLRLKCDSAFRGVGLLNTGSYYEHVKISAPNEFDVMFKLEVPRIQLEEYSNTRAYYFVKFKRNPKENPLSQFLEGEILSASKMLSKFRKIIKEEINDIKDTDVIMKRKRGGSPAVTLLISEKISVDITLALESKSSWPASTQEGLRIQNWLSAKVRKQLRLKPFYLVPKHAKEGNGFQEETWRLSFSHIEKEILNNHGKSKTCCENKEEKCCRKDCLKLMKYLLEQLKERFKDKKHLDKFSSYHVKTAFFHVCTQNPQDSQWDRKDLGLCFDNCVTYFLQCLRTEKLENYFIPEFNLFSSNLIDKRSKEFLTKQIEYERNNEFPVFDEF

[20] = (§4) Inhibition of dsDNA-induced cGAS signaling pathway in mouse RAW-Lucia ISG cells preincubated with compound for 24 hrs followed by HT-DNA addition and measured after 24 hrs by QUANTI-Luc luciferase reagent based assay; format: cell-based
RAW-Lucia ISG [21] = experiment: as §4; format: cell-based; conditions: time 48.0 hrs
Mus musculus [22] = experiment: as §2, with “reduction” for “decrease”, “IL-6 mRNA level in colon” for “disease activity index”, “11 by qRT-PCR analysis” for “11”; format: functional, organism-based; conditions: dose 20-50 mg/kg/day, time 8.0 day
[23] = target: T2, Protein cereblon/Cyclic GMP-AMP synthase (Mus musculus); experiment: (§5) PROTAC activity at CRBN/cGAS in mouse RAW264.7 cells assessed as induction of cGAS degradation preincubated with compound for 40 hrs followed by HT-DNA stimulation and measured after 8 hrs by Western blot analysis; format: cell-based; conditions: time 48.0 hrs
[24] = target: Protein cereblon/Cyclic GMP-AMP synthase (Mus musculus, UniProt Q8C6L5+Q8C7D2); experiment: as §5; format: cell-based
Protein cereblon/Cyclic GMP-AMP synthase (Mus musculus, UniProt Q8C6L5+Q8C7D2), sequence (Q8C6L5 whole entry): as the sequence (Q8C6L5 whole entry, looked up) above
Protein cereblon/Cyclic GMP-AMP synthase (Mus musculus, UniProt Q8C6L5+Q8C7D2), sequence (Q8C7D2 whole entry): as the sequence (Q8C7D2 whole entry, looked up) above

THP-1 [25] = experiment: Inhibition of cGAMP production in human THP-1 cells at 5 to 20 uM preincubated with compound for 36 hrs followed by HT-DNA addition and measured after 6 hrs by LC-MS analysis; format: functional, cell-based; conditions: dose 5-20 µM, time 42.0 hrs
THP-1 [26] = experiment: Downregulation of IFNB mRNA expression level in ISD-induced human THP-1 cells at 20 uM preincubated with compound for 12 hrs followed by 45-bp immune stimulatory DNA addition and measured after 8 hrs by RT-qPCR analysis; format: functional, cell-based; conditions: time 20.0 hrs
RAW264.7 = experiment: Upregulation of IFNB mRNA expression level in mouse Trex1-/- RAW264.7 cells at 5 to 20 uM incubated for 24 hrs by qRT-PCR analysis; format: functional, cell-based; conditions: dose 5-20 µM
[27] = target: T2, Protein cereblon/Cyclic GMP-AMP synthase (Mus musculus); experiment: as §1, with “TBK1” for “IRF3”; format: functional, organism-based; conditions: dose 20-50 mg/kg/day, route ip, time 8.0 day

T1 sequence (Q8N884 whole entry, looked up): as the sequence (Q8N884 whole entry) above
T1 sequence (Q96SW2 whole entry, looked up): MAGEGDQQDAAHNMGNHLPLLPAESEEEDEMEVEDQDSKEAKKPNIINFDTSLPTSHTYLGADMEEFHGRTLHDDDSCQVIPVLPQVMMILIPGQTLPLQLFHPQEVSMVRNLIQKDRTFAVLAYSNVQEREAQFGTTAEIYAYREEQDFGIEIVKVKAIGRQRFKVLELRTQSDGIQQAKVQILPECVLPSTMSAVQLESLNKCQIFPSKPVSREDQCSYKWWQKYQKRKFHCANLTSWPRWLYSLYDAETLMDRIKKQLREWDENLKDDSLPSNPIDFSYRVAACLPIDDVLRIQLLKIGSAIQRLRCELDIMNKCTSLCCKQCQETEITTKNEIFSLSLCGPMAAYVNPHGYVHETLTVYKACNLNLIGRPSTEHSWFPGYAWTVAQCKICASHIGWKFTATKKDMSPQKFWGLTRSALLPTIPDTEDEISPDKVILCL

Activity [1]: Time-dependent-effect
Drug uptake [3]: Active
Emax [11]: 94.4%
Activity [14]: inactive
inhibition [19]: inactive
IC50 [20]: 4.8 µM
Activity [23]: Dose-dependent-effect
DC50 [24]: 4.6 µM
Compound: Cn1ccc(-c2cc(Cl)c(Cl)c3[nH]c4c(c23)CN(C(=O)CNC(=O)CCCC#Cc2cccc3c2CN(C2CCC(=O)NC2=O)C3=O)CC4)n1 (centres undefined)
Activity (THP-1 [2]): Dose-dependent-effect
inhibition [4]: Dose-dependent-effect
Activity (Mus musculus [5]): Active
Activity (THP-1 [6]): Active
Activity (Mus musculus [7]): Active
inhibition (THP-1 [8]): Dose-dependent-effect
Activity (Mus musculus [9]): Active
Ratio IC50 (RAW-Lucia ISG [10]): 3
Activity (Mus musculus [12]): Active
Activity (THP-1 [13]): Dose-dependent-effect
Activity (THP-1 [15]): inactive
Activity (Mus musculus [16]): Active
Ratio IC50 (THP1-Lucia ISG): 3
Activity [17]: Non-toxic
inhibition [18]: Dose-dependent-effect
inhibition (RAW-Lucia ISG [21]): Dose-dependent-effect
Activity (Mus musculus [22]): Active
inhibition (THP-1 [25]): Active
Activity (THP-1 [26]): Active
Activity (RAW264.7): Active
inhibition [27]: Dose-dependent-effect

Reference: ChEMBL document CHEMBL6103619, “Discovery of a Novel CRBN-Recruiting cGAS PROTAC Degrader for the Treatment of Ulcerative Colitis” (J Med Chem, 2025)
